Measurements published in article PMC7738869, “A novel STAT3 inhibitor W2014-S regresses human non-small cell lung cancer xenografts and sensitizes EGFR-TKI acquired resistance” (Theranostics, 2021).
Values joined by “and” are separate entries in the source; they are usually repeats but may differ in a detail not shown here. Equal entries are not always repeated. Where two headings read alike, the source gives them in different places.

Test: Pharmacokinetic study
Format: in vivo, SD rats
Method: W2014-S was given to SD rats (male, 230-260g, n = 6) by gavage and intravenous administration. The rats were fasted for 12 h before administration and remained fasting for 2 h. For oral gavage, W2014-S was dissolved in DMSO/0.5% HPMC (5/95, v/v/), and W2014-S was dissolved in DMSO/EtOH/PEG300/0.9% NaCl (5/5/40/50, v/v/v/v) for intravenous administration. The pharmacokinetic (PK) profiles were next evaluated in SD rats.

[1] = rat, i.v. 3 mg/kg, individual animals 4-6, 3 mg/kg
[2] = rat, p.o. 10 mg/kg, individual animals 1-3, 10 mg/kg

C[C@H](Oc1ccc(-c2nc3nc(C4=CCN(C(=O)OC(C)(C)C)CC4)ccc3[nH]2)cc1)c1ccccc1 [W2014-S]
concentration at 4 h (male, SD, rat, plasma, po, 10 mg/kg, p.o. 10 mg/kg, 4.00 h, read-out: Concentration in rat plasma, mean): 7.83 ng/mL | concentration at 8 h (male, SD, rat, plasma, po, 10 mg/kg, p.o. 10 mg/kg, 8.00 h): 0.633 ng/mL | concentration at 24 h (male, SD, rat, plasma, po, 10 mg/kg, p.o. 10 mg/kg, 24.0 h, read-out: Concentration in rat plasma, mean): 0 ng/mL | half-life (male, SD, rat, plasma, po, 10 mg/kg, p.o. 10 mg/kg, individual animals 1-3): 1.21 h | AUC(0-inf) (male, SD, rat, plasma, po, 10 mg/kg, rat, p.o. 10 mg/kg, individual animals 1-3, read-out: AUCINF_obs): 57.9 ng·h/mL | AUC(0-t) (male, SD, rat, plasma, po, 10 mg/kg, rat, p.o. 10 mg/kg, individual animals 1-3, read-out: AUClast): 54.6 ng·h/mL | half-life (male, Sprague-Dawley (SD), rat, plasma, iv, 3 mg/kg, SD rats, 3 mg/kg iv, mean): 13.6 h | AUC(0-inf) (male, Sprague-Dawley (SD), rat, plasma, iv, 3 mg/kg, SD rats, 3 mg/kg iv, mean, read-out: AUC0-inf): 244 ng·h/mL | AUC(0-t) (male, Sprague-Dawley (SD), rat, plasma, iv, 3 mg/kg, SD rats, 3 mg/kg iv, mean, read-out: AUC0-last): 222 ng·h/mL | clearance (male, Sprague-Dawley (SD), rat, plasma, iv, 3 mg/kg, SD rats, 3 mg/kg iv, mean, read-out: CL): 206 mL/min/kg | half-life (male, Sprague-Dawley (SD), rat, plasma, po, 10 mg/kg, SD rats, 10 mg/kg po, mean): 1.46 h | AUC(0-inf) (male, Sprague-Dawley (SD), rat, plasma, po, 10 mg/kg, SD rats, 10 mg/kg po, mean, read-out: AUC0-inf): 56.1 ng·h/mL | AUC(0-t) (male, Sprague-Dawley (SD), rat, plasma, po, 10 mg/kg, SD rats, 10 mg/kg po, mean, read-out: AUC0-last): 54.6 ng·h/mL | Cmax (male, Sprague-Dawley (SD), rat, plasma, po, 10 mg/kg, SD rats, 10 mg/kg po, mean, read-out: Cmax): 23.8 ng/mL | Tmax (male, Sprague-Dawley (SD), rat, plasma, po, 10 mg/kg, SD rats, 10 mg/kg po, mean, read-out: Tmax): 1.67 h | MRT inf (male, Sprague-Dawley (SD), rat, plasma, po, 10 mg/kg, rat, p.o. 10 mg/kg, mean, read-out: MRTINF_obs): 2.61 h | Vd (male, Sprague-Dawley (SD), rat, plasma, SD rats, 3 mg/kg iv, mean, read-out: Vss): 77.5 L/kg | bioavailability (male, Sprague-Dawley (SD), rat, plasma, SD rats, 10 mg/kg po vs 3 mg/kg iv): 7.39% | Concentration in rat plasma, individual animals 1-3 (p.o. 10 mg/kg, 0.25 h, 10 mg/kg): 29.9 ng/mL and 7.10 ng/mL and 21.9 ng/mL | Concentration in rat plasma, individual animals 1-3 (p.o. 10 mg/kg, 0.50 h, 10 mg/kg): 10.0 ng/mL and 27.4 ng/mL and 30.0 ng/mL | Concentration in rat plasma, individual animals 1-3 (p.o. 10 mg/kg, 1.00 h, 10 mg/kg): 8.00 ng/mL and 18.7 ng/mL and 21.7 ng/mL | Concentration in rat plasma, individual animals 1-3 (p.o. 10 mg/kg, 2.00 h, 10 mg/kg): 9.40 ng/mL and 6.60 ng/mL | Concentration in rat plasma, individual animals 1-3 (p.o. 10 mg/kg, 4.00 h, 10 mg/kg): 13.9 ng/mL and 4.80 ng/mL (2×) | Concentration in rat plasma, individual animals 1-3 (p.o. 10 mg/kg, 8.00 h, 10 mg/kg): 1.20 ng/mL and 0.400 ng/mL and 0.300 ng/mL | Concentration in rat plasma, individual animals 1-3 (p.o. 10 mg/kg, 24.0 h, BLQ: Below LLOQ (LLOQ = 0.3 ng/mL)): BLQ | AUCINF_obs [1]: 247 ng·h/mL and 255 ng·h/mL | AUClast [1]: 220 ng·h/mL and 236 ng·h/mL | CL_obs [1]: 202 mL/min/kg and 196 mL/min/kg | MRTINF_obs [1]: 7.48 h and 5.59 h | T1/2 [1]: 14.2 h and 11.2 h | Vss_obs [1]: 76.143 L/kg and 90.763 L/kg and 65.72 L/kg | Vss_obs (rat, i.v. 3 mg/kg, mean): 77.542 L/kg | AUCINF_obs [2]: 55.3 ng·h/mL and 55.0 ng·h/mL | AUClast [2]: 54.5 ng·h/mL | Cmax [2]: 13.9 ng/mL and 27.4 ng/mL and 30.0 ng/mL | MRTINF_obs [2]: 3.89 h and 2.08 h and 1.87 h | T1/2 [2]: 1.88 h and 1.29 h | Tmax [2]: 4.00 h and 0.50 h (2×)
